Literature values in publication PMC4310643 (ACS Nano, 2015).

Tested on: ABIR

binding affinity to ABIR: high binding affinity to ABIR
Substance: Arg-Gly-Asp-DPhe-Lys (head to tail) [cRGDfK, cyclic peptide, arginine-glycine-aspartic acid-(D)phenylalanine-lysine]
